In US20150105252A1, “SUBSTITUTED PYRAZOLES AS HERBICIDES” (E I DU PONT DE NEMOURS AND COMPANY, priority 2013, published 2015):

Key:
corn [1] = assay: Test C preemergence; assay type: in vivo, Zea mays; details: preemergence; for Plant response rating, Corn: 125 g ai/ha, scale 0 to 100, 0 = no effect, 100 = complete control
Outline: (§1)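 In this greenhouse assay, seeded soil (loam plus sand) or emerged seedlings in peat-vermiculite medium were treated with formulated compound. Roughly two weeks later (13–15 days), each species was scored visually relative to controls, from 0 for no effect to 100 for complete control.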

barnyardgrass [2] = assay: Test A postemergence; assay type: in vivo, Echinochloa crus-galli
Outline: (§2)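 Ratings express plant response from 0 (no effect) to 100 (complete control), judged visually against untreated controls after approximately 10 days in the greenhouse. Preemergence applications were made as directed soil sprays onto seeded loam–sand mix, and postemergence applications onto 2–10 cm plants at one- to two-leaf stage.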

morningglory = assay: Test A preemergence; assay type: in vivo, Ipomoea spp.; details: preemergence; for Morningglory plant response rating (0 to 100 scale): 125 g ai/ha, visual injury approx. 10 days after treatment; for Morningglory plant response rating: 500 g ai/ha, visual injury after approx. 10 days, 0 to 100 scale (0 no effect, 100 complete control)
Outline: as §2

rice = assay: Test B flood; assay type: in vivo, Oryza sativa; details: 250 g ai/ha, visual rating on 0 to 100 scale (0 no effect, 100 complete control), 13 to 15 days
Outline: (§3)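 At two leaves, seedlings received the test compound via the paddy water, pots having been flooded 3 cm over the soil surface and kept so. Greenhouse-held for 13 to 15 days, then judged by eye against controls on a scale running 0 (no effect) to 100 (complete control).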

corn [3] = assay: Test A preemergence; assay type: in vivo, Zea mays; details: preemergence; for Corn plant response rating (0 to 100 scale): 125 g ai/ha, visual injury approx. 10 days after treatment; for Corn plant response rating: 500 g ai/ha, visual injury after approx. 10 days, 0 to 100 scale (0 no effect, 100 complete control)
Outline: as §2

galium = assay: Test C postemergence; assay type: in vivo, Galium aparine; details: for Plant response rating (scale of 0 to 100 where 0 is no effect and 100 is complete control), Galium: Postemergence, 31 g ai/ha, visually evaluated after 13 to 15 days; for Galium plant response rating / Plant response rating, Galium: postemergence; for Galium plant response rating: 62 g ai/ha, scale 0 to 100
Outline: as §1

crabgrass, large [4] = assay: Test C postemergence; assay type: in vivo, Digitaria sanguinalis; details: for Plant response rating (scale of 0 to 100 where 0 is no effect and 100 is complete control), Crabgrass, Large: Postemergence, 31 g ai/ha, visually evaluated after 13 to 15 days; for Crabgrass, Large plant response rating / Plant response rating, Crabgrass, Large: postemergence; for Crabgrass, Large plant response rating: 62 g ai/ha, scale 0 to 100
Outline: as §1

velvetleaf = assay: Test A preemergence; assay type: in vivo, Abutilon theophrasti; details: preemergence; for Velvetleaf plant response rating (0 to 100 scale): 125 g ai/ha, visual injury approx. 10 days after treatment; for Velvetleaf plant response rating: 500 g ai/ha, visual injury after approx. 10 days, 0 to 100 scale (0 no effect, 100 complete control)
Outline: as §2

crabgrass, large [5] = assay: Test A preemergence; assay type: in vivo, Digitaria sanguinalis; details: preemergence; for Crabgrass, Large plant response rating (0 to 100 scale): 125 g ai/ha, visual injury approx. 10 days after treatment; for Crabgrass, Large plant response rating: 500 g ai/ha, visual injury after approx. 10 days, 0 to 100 scale (0 no effect, 100 complete control)
Outline: as §2

oilseed rape [6] = assay: Test C postemergence; assay type: in vivo, Brassica napus; details: postemergence; for Oilseed Rape plant response rating: 62 g ai/ha, scale 0 to 100
Outline: as §1

kochia = assay: Test C postemergence; assay type: in vivo, Kochia scoparia; details: for Plant response rating (scale of 0 to 100 where 0 is no effect and 100 is complete control), Kochia: Postemergence, 31 g ai/ha, visually evaluated after 13 to 15 days; for Kochia plant response rating / Plant response rating, Kochia: postemergence; for Kochia plant response rating: 62 g ai/ha, scale 0 to 100
Outline: as §1

oilseed rape [7] = assay: Test C preemergence; assay type: in vivo, Brassica napus; details: preemergence; for Plant response rating, Oilseed Rape: 125 g ai/ha, scale 0 to 100, 0 = no effect, 100 = complete control
Outline: as §1

barnyardgrass [8] = assay: Test B flood; assay type: in vivo, Echinochloa crus-galli; details: 250 g ai/ha, visual rating on 0 to 100 scale (0 no effect, 100 complete control), 13 to 15 days
Outline: as §3

foxtail, giant = assay: Test A postemergence; assay type: in vivo, Setaria faberii
Outline: as §2

[9] = 31 g ai/ha, visual rating, scale 0 to 100 (0 no effect, 100 complete control), 13 to 15 days
[10] = 62 g ai/ha, scale 0 to 100 (0 no effect, 100 complete control), 13 to 15 days
[11] = 250 g ai/ha, scale 0 to 100, 0 is no effect, 100 is complete control
[12] = Postemergence, 500 g ai/ha, 0 to 100 scale (0 no effect, 100 complete control)
[13] = postemergence, 125 g ai/ha, about 10 days, visual rating on 0 to 100 scale (0 no effect, 100 complete control)
[14] = 250 g ai/ha, scale 0 to 100 (0 no effect, 100 complete control)
[15] = 125 g ai/ha, scale 0 to 100, 0 no effect, 100 complete control

SMILES	Corn plant response rating (corn [1]; [9])	Corn plant response rating (corn [1]; [10])	Plant response rating, Corn (corn [1]; 13 to 15 days)	Corn plant response rating (corn [1]; [11])	Barnyardgrass plant response rating (barnyardgrass [2]; [12])	Barnyardgrass plant response rating (barnyardgrass [2]; [13])	Morningglory plant response rating (0 to 100 scale) (morningglory)	Morningglory plant response rating (morningglory)	Plant response rating, Rice (rice)	Corn plant response rating (0 to 100 scale) (corn [3])	Corn plant response rating (corn [3])	Plant response rating (scale of 0 to 100 where 0 is no effect and 100 is complete control), Galium (galium)	Galium plant response rating (galium)	Plant response rating, Galium (galium; [14])	Plant response rating, Galium (galium; [15])	Plant response rating (scale of 0 to 100 where 0 is no effect and 100 is complete control), Crabgrass, Large (crabgrass, large [4])	Crabgrass, Large plant response rating (crabgrass, large [4])	Plant response rating, Crabgrass, Large (crabgrass, large [4]; [14])	Plant response rating, Crabgrass, Large (crabgrass, large [4]; [15])	Velvetleaf plant response rating (0 to 100 scale) (velvetleaf)	further results
CCOc1cc(C(=O)NOC(C)C)nn1Cc1ccnc(C(F)(F)F)c1 [Compound 153]	10	50	95	98	100	100	100	100	40	90	100	50	60	80	70	5	10	45	15	90	Velvetleaf plant response rating (velvetleaf): 100; Crabgrass, Large plant response rating (0 to 100 scale) (crabgrass, large [5]): 100; Crabgrass, Large plant response rating (crabgrass, large [5]): 100; Oilseed Rape plant response rating (oilseed rape [6]): 25; Plant response rating, Oilseed Rape (oilseed rape [6]; [14]): 45; Plant response rating, Oilseed Rape (oilseed rape [6]; [15]): 40; Plant response rating (scale of 0 to 100 where 0 is no effect and 100 is complete control), Kochia (kochia): 50; Kochia plant response rating (kochia): 70; Plant response rating, Kochia (kochia; [14]): 90; Plant response rating, Kochia (kochia; [15]): 85; Oilseed Rape plant response rating (oilseed rape [7]; [9]): 60; Oilseed Rape plant response rating (oilseed rape [7]; [10]): 95; Plant response rating, Oilseed Rape (oilseed rape [7]; 13 to 15 days): 95; Oilseed Rape plant response rating (oilseed rape [7]; [11]): 95; Plant response rating, Barnyardgrass (barnyardgrass [8]): 45; Foxtail, Giant plant response rating (foxtail, giant; [12]): 100; Foxtail, Giant plant response rating (foxtail, giant; [13]): 100
CCNC(=O)c1cc(CC)n(Cc2cc(C(F)(F)F)nn2C)n1 [Compound 154]	0	5	40	95	100	100	100	100	0	0	30	50	50	85	65	5	5	10	5	90	Velvetleaf plant response rating (velvetleaf): 100; Crabgrass, Large plant response rating (0 to 100 scale) (crabgrass, large [5]): 100; Crabgrass, Large plant response rating (crabgrass, large [5]): 100; Oilseed Rape plant response rating (oilseed rape [6]): 45; Plant response rating, Oilseed Rape (oilseed rape [6]; [14]): 70; Plant response rating, Oilseed Rape (oilseed rape [6]; [15]): 60; Plant response rating (scale of 0 to 100 where 0 is no effect and 100 is complete control), Kochia (kochia): 80; Kochia plant response rating (kochia): 85; Plant response rating, Kochia (kochia; [14]): 95; Plant response rating, Kochia (kochia; [15]): 85; Oilseed Rape plant response rating (oilseed rape [7]; [9]): 85; Oilseed Rape plant response rating (oilseed rape [7]; [10]): 95; Plant response rating, Oilseed Rape (oilseed rape [7]; 13 to 15 days): 95; Oilseed Rape plant response rating (oilseed rape [7]; [11]): 95; Plant response rating, Barnyardgrass (barnyardgrass [8]): 45; Foxtail, Giant plant response rating (foxtail, giant; [12]): 100; Foxtail, Giant plant response rating (foxtail, giant; [13]): 100
CCCNC(=O)c1cc(CCF)n(Cc2ccnc(C(F)(F)F)c2)n1 [Compound 177]	5	40	90	98	100	100	100	100	15	80	90	50	50	90	80	5	5	10	5	40	Velvetleaf plant response rating (velvetleaf): 100; Crabgrass, Large plant response rating (0 to 100 scale) (crabgrass, large [5]): 100; Crabgrass, Large plant response rating (crabgrass, large [5]): 100; Oilseed Rape plant response rating (oilseed rape [6]): 50; Plant response rating, Oilseed Rape (oilseed rape [6]; [14]): 70; Plant response rating, Oilseed Rape (oilseed rape [6]; [15]): 60; Plant response rating (scale of 0 to 100 where 0 is no effect and 100 is complete control), Kochia (kochia): 60; Kochia plant response rating (kochia): 85; Plant response rating, Kochia (kochia; [14]): 90; Plant response rating, Kochia (kochia; [15]): 90; Oilseed Rape plant response rating (oilseed rape [7]; [9]): 70; Oilseed Rape plant response rating (oilseed rape [7]; [10]): 60; Plant response rating, Oilseed Rape (oilseed rape [7]; 13 to 15 days): 90; Oilseed Rape plant response rating (oilseed rape [7]; [11]): 95; Plant response rating, Barnyardgrass (barnyardgrass [8]): 60; Foxtail, Giant plant response rating (foxtail, giant; [12]): 100; Foxtail, Giant plant response rating (foxtail, giant; [13]): 100
CCCc1cc(C(=O)NC(C)C)nn1Cc1ccnc(C(F)(F)F)c1 [Compound 186]	55	85	95	98	90	90	100	100	75	80	100	70	80	100	75	5	5	80	20	100	Velvetleaf plant response rating (velvetleaf): 100; Crabgrass, Large plant response rating (0 to 100 scale) (crabgrass, large [5]): 100; Crabgrass, Large plant response rating (crabgrass, large [5]): 100; Oilseed Rape plant response rating (oilseed rape [6]): 60; Plant response rating, Oilseed Rape (oilseed rape [6]; [14]): 85; Plant response rating, Oilseed Rape (oilseed rape [6]; [15]): 80; Plant response rating (scale of 0 to 100 where 0 is no effect and 100 is complete control), Kochia (kochia): 80; Kochia plant response rating (kochia): 85; Plant response rating, Kochia (kochia; [14]): 95; Plant response rating, Kochia (kochia; [15]): 90; Oilseed Rape plant response rating (oilseed rape [7]; [9]): 100; Oilseed Rape plant response rating (oilseed rape [7]; [10]): 100; Plant response rating, Oilseed Rape (oilseed rape [7]; 13 to 15 days): 100; Oilseed Rape plant response rating (oilseed rape [7]; [11]): 95; Plant response rating, Barnyardgrass (barnyardgrass [8]): 75; Foxtail, Giant plant response rating (foxtail, giant; [12]): 90; Foxtail, Giant plant response rating (foxtail, giant; [13]): 90
